Data set [1] addresses T1, SAP (Homo sapiens, UniProt P02743).
T1 construct: Depletion of plasma SAP by CPHPC, from the normal 20-50 mg/L to <0.1 mg/L; host or cells: circulating SAP in plasma and CSF of patients
The conditions noted are these: systemic amyloidosis patients, for as long as the drug was administered; cited from earlier work.

In data set [2] the target is T1, SAP. The conditions noted are these: patients with Alzheimer's disease, cited from earlier work.
The conditions of data set [3]: very low and variable; cited from earlier work.
The target in data set [4] is T2, CYP1A2 (Homo sapiens, UniProt P05177).
T2 construct: purchased Cypex; host or cells: bactosomes (bacterial membranes)
T2 sequence (P05177 1-516): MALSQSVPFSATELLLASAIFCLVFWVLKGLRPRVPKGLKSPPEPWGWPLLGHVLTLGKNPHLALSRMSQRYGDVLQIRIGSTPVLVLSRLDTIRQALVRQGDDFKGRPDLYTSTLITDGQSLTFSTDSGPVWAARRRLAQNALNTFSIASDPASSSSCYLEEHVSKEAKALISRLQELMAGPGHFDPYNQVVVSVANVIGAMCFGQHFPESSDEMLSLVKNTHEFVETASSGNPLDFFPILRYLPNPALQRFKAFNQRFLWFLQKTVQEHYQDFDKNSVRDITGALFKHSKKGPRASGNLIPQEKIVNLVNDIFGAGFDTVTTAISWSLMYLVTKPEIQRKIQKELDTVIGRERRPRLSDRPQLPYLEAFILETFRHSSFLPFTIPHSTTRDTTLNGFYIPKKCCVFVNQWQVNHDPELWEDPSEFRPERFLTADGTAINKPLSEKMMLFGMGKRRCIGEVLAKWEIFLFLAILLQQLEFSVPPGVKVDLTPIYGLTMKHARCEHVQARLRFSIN
In words: Cytochrome p450 inhibition assay (bactosomes, fluorogenic substrate ER). Type of data set: biochemical. The conditions noted are these: recombinant human CYP (Cypex bactosomes). The procedure: (§1) The assay was designed to evaluate inhibition on cytochrome P450 (CYP) 3A4, 2C9, 2C19, 1A2 and 2D6 enzymes from bactosomes source using fluorogenic substrates. Compound (compound of Formula (I) or Comparator Compound) was dissolved in methanol at 1.65 mM. Daughter solutions were prepared in methanol at 660, 264, 106, 42, 17, 6.8, 2.7, 1.1 and 0.43 μM. NADPH cofactor was prepared with Glucose-6-phosphate (7.8 mg), Glucose-6-phosphate dehydrogenase (6 units), NADP (1.7 mg) per 1 mL in NaHCO3 2%. Substrate preparation was as follows: • 7-Methoxy-4-triFluoromethyl Coumarin-3-Acetic acid ethyl ester (FCA): 12.5 mM in acetonitrile • EthoxyResorufin (ER): 0.05 mM in acetonitrile • 4-MethylaminoMethyl-7-Methoxy Coumarin (MMC): 2.5 mM in methanol • 3-Butyryl-7Methoxy Coumarin (BMC): 2.5 mM in DMSO • 7-BenzyloxyQuinoline (7BQ): 2.5 mM in acetonitrile • DiEthoxyFluorescein (DEF): 0.1 mM in acetonitrile Bactosomes (Cypex source) at the concentration of 10 mg of protein per ml were diluted in phosphate buffer 50 mM pH7.4: • 0.33 ml of bactosomes CYP2C9 with 23.8 ml of buffer and 0.11 ml of FCA • 0.33 ml of bactosomes CYP1A2 with 23.6 ml of buffer and 0.275 ml of ER • 0.33 ml of bactosomes CYP2D6 with 23.8 ml of buffer and 0.11 ml of MMC • 0.33 ml of bactosomes CYP2C19 with 23.8 ml of buffer and 0.11 ml of BMC • 0.33 ml of bactosomes CYP3[…] with 23.6 ml of buffer and 0.275 ml of 7BQ • 0.33 ml of bactosomes CYP3[…] with 23.6 ml of buffer and 0.275 ml of DEF Pre-Incubation consisted in mixing 5 μl of compound solution with 220 μl diluted bactosomes and warming it at 37° C. for 10 min. Incubation was started with the addition of 25 μl of NADPH. […]

The target of data set [5] is T3, CYP2C9 (Homo sapiens, UniProt P11712).
T3 construct: purchased Cypex; host or cells: bactosomes (bacterial membranes)
T3 sequence (P11712 whole entry): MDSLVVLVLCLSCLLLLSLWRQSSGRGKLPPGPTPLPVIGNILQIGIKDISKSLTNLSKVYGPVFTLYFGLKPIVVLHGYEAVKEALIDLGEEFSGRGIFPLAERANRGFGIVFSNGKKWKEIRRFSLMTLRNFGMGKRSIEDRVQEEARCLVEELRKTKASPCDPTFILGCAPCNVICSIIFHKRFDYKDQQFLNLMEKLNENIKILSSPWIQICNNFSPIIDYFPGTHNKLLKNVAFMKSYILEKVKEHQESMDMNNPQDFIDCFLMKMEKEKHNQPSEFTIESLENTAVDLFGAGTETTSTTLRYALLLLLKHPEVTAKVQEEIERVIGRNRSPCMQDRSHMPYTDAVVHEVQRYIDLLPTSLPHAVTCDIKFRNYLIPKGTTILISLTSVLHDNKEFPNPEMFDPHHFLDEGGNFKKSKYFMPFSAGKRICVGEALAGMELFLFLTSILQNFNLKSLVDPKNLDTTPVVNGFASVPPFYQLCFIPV
The data set can be described thus: Cytochrome p450 inhibition assay (bactosomes, fluorogenic substrate FCA). Type of data set: biochemical. The conditions noted are these: recombinant human CYP (Cypex bactosomes). On the procedure:
as §1

Data set [6] has as its target T4, CYP3A4 (Homo sapiens, UniProt P08684).
T4 construct: purchased Cypex; host or cells: bactosomes (bacterial membranes)
The data set can be described thus: Cytochrome p450 inhibition assay (bactosomes, fluorogenic substrates 7BQ and DEF). Type of data set: biochemical. Conditions: recombinant human CYP (Cypex bactosomes). On the procedure:
The assay was designed to evaluate inhibition on cytochrome P450 (CYP) 3A4, 2C9, 2C19, 1A2 and 2D6 enzymes from bactosomes source using fluorogenic substrates. Compound (compound of Formula (I) or Comparator Compound) was dissolved in methanol at 1.65 mM. Daughter solutions were prepared in methanol at 660, 264, 106, 42, 17, 6.8, 2.7, 1.1 and 0.43 μM. NADPH cofactor was prepared with Glucose-6-phosphate (7.8 mg), Glucose-6-phosphate dehydrogenase (6 units), NADP (1.7 mg) per 1 mL in NaHCO3 2%. Substrate preparation was as follows: • 7-Methoxy-4-triFluoromethyl Coumarin-3-Acetic acid ethyl ester (FCA): 12.5 mM in acetonitrile • EthoxyResorufin (ER): 0.05 mM in acetonitrile • 4-MethylaminoMethyl-7-Methoxy Coumarin (MMC): 2.5 mM in methanol • 3-Butyryl-7Methoxy Coumarin (BMC): 2.5 mM in DMSO • 7-BenzyloxyQuinoline (7BQ): 2.5 mM in acetonitrile • DiEthoxyFluorescein (DEF): 0.1 mM in acetonitrile Bactosomes (Cypex source) at the concentration of 10 mg of protein per ml were diluted in phosphate buffer 50 mM pH7.4: • 0.33 ml of bactosomes CYP2C9 with 23.8 ml of buffer and 0.11 ml of FCA • 0.33 ml of bactosomes CYP1A2 with 23.6 ml of buffer and 0.275 ml of ER • 0.33 ml of bactosomes CYP2D6 with 23.8 ml of buffer and 0.11 ml of MMC • 0.33 ml of bactosomes CYP2C19 with 23.8 ml of buffer and 0.11 ml of BMC • 0.33 ml of bactosomes CYP3[…] with 23.6 ml of buffer and 0.275 ml of 7BQ • 0.33 ml of bactosomes CYP3[…] with 23.6 ml of buffer and 0.275 ml of DEF Pre-Incubation consisted in mixing 5 μl of compound solution with 220 μl diluted bactosomes and warming it at 37° C. for 10 min. Incubation was started with the addition of 25 μl of NADPH. Then fluorescence of substrate metabolite was read in a SAFIRE instrument (from Tecan) for 5 min: • FCA (2C9): Excitation at 410 nm and Emission at 510 nm • ER (1A2): Excitation at 530 nm and Emission at 590 nm • MMC (2D6): Excitation at 410 nm and Emission at 485 nm • BMC (2C19): Excitation at 410 nm and Emission at 465 nm • 7BQ (3A4H): Excitation at 410 nm and Emission at 530 nm • DEF (3A4L): Excitation at 485 nm and Emission at 530 nm Plotting of inhibition of substrate production against compound concentration allowed the determination of IC50 values.

In data set [7] the target is T5, CYP2C19 (Homo sapiens, UniProt P33261).
T5 construct: purchased Cypex; host or cells: bactosomes (bacterial membranes)
T5 sequence (P33261 whole entry): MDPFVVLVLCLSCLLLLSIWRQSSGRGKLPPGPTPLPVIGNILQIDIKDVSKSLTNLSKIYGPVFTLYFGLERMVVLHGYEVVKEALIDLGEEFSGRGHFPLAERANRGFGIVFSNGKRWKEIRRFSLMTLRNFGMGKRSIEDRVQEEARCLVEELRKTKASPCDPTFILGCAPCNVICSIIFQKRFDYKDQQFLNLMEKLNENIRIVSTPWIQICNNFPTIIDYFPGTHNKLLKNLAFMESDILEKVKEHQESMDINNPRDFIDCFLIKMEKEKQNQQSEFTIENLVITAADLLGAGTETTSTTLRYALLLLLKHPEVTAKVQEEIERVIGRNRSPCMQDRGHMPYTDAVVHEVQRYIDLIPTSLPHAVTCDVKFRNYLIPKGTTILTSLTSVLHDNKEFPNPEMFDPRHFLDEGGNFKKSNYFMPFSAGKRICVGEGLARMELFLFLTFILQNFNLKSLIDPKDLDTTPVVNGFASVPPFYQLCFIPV
The data set can be described thus: Cytochrome p450 inhibition assay (bactosomes, fluorogenic substrate BMC). In kind it is biochemical. Conditions: recombinant human CYP (Cypex bactosomes). On the procedure: as §1

In data set [8] the target is T6, CYP2D6 (Homo sapiens, UniProt P10635).
T6 construct: purchased Cypex; host or cells: bactosomes (bacterial membranes)
T6 sequence (P10635 whole entry): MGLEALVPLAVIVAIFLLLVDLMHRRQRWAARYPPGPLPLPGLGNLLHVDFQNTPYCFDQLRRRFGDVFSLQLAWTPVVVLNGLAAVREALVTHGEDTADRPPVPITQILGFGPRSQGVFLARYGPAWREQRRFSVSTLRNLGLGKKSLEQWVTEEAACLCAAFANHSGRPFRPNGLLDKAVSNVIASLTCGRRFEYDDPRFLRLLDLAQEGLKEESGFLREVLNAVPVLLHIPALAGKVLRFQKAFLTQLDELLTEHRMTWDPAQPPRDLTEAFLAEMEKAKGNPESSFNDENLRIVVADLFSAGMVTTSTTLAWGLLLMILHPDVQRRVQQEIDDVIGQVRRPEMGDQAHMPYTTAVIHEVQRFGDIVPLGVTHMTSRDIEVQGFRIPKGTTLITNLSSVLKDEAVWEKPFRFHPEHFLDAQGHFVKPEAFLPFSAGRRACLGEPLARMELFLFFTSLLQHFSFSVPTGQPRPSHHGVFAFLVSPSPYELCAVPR
The data set can be described thus: Cytochrome p450 inhibition assay (bactosomes, fluorogenic substrate MMC). In kind it is biochemical. Conditions: recombinant human CYP (Cypex bactosomes). On the procedure:
as §1

Read-outs that look alike come from different tables or passages of the source.

T1 sequence (P02743 20-223): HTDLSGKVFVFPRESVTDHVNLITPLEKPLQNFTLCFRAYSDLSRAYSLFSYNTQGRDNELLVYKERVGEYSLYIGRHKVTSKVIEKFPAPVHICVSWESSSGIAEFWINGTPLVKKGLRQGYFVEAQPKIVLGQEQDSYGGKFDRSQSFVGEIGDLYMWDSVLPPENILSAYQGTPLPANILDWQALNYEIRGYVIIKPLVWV
T4 sequence (P08684 whole entry): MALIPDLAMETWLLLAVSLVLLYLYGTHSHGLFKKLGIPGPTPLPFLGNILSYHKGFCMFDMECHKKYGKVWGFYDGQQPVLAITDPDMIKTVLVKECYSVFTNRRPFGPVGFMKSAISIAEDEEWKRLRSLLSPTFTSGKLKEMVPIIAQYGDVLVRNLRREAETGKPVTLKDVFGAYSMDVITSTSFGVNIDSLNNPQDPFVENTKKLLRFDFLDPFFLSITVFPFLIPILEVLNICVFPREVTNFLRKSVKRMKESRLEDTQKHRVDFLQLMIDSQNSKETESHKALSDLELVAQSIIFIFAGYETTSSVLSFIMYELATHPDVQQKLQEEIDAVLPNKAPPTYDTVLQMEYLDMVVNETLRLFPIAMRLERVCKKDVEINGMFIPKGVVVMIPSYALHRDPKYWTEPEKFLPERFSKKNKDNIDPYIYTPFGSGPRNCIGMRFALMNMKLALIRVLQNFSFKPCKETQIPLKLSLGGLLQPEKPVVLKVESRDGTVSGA

For `O=C(O)[C@H]1CCCN1C(=O)CCCCC(=O)N1CCC[C@@H]1C(=O)O` [CPHPC, (R)-1-[6-[(R)-2-carboxy-pyrrolidin-1-yl]-6-oxo-hexanoyl]pyrrolidine-2-carboxylic acid], in data set [1], the “Depletion of circulating SAP” value was “almost complete depletion”. Besides, in data set [2] (from 2-30 μg/L), the “CSF SAP concentration after depletion” value was below 0.1 µg/L. Besides, in data set [2] (from the normal 20-50 mg/L), the “Plasma SAP after depletion” value is on record as below 0.1 mg/L. For the same molecule, the Oral bioavailability in data set [3] is on record as 3-5%.
What is called IC50 is the point on the concentration scale where inhibition reaches its midpoint. As for `CC(OC(=O)[C@H]1CCCN1C(=O)CCCCC(=O)N1CCC[C@@H]1C(=O)OC(C)OC(=O)C(C)(C)C)OC(=O)C(C)(C)C` (stereo partly drawn) [Comparator Compound, (2R,2′R)-bis(1-(pivaloyloxy)ethyl) 1,1′-adipoylbis(pyrrolidine-2-carboxylate), reference compound], the IC50 is above 33 µM in data set [4]; 26 µM in data set [5]; 5.5 µM in data set [6] (substrate 7BQ, read-out: IC50 CYP3A4 (7BQ)); 1.1 µM in data set [6] (substrate DEF, read-out: IC50 CYP3A4 (DEF)); above 33 µM in data set [7]; above 33 µM in data set [8]. Also, the “IC50 CYP3A4 (7BQ)” value in data set [6] (substrate 7BQ) is given as “significant inhibition”. The “IC50 CYP3A4 (DEF)” value in data set [6] (substrate DEF) is given as “significant inhibition”.

Source of the values: patent US9737505B2, “Prodrug of 1,1′-(1,6-dioxo-1,6-hexanediyl)bis-D-proline” (GlaxoSmithKline Intellectual Property Development Limited, priority 2014, dated 2017).
